Publication PMC7456637, “Pharmacokinetic characterization of fluorocoxib D, a cyclooxygenase-2-targeted optical imaging agent for detection of cancer” (Journal of Biomedical Optics, 2020)
Where “and” joins values, the source holds several entries; their conditions need not be identical. Identical values can stand only once. Entries after “also recorded” stand apart in the source; their conditions may differ.

Key:
[1] = parameters: method as in earlier work; settings: cited from earlier work
[2] = Pilot safety study: complete blood count (CBC); type: in vivo, dog
Method: (§1) The animal studies were performed in the accordance with the University of Tennessee Institutional Animal Care and Use Committee (UT IACUC)-approved protocols and in an accordance with NIH guidelines. Individually housed research healthy female beagle dogs (Covance Research Product) with weights of 6.7 to 10.3 kg were used to assess the safety and pharmacokinetic parameters of fluorocoxib D administrated a dose of 1 mg/kg over 20 min intravenously (i.v.).
For single dose safety evaluation studies, we administrated fluorocoxib D at 1 mg/kg , i.v. using a preplaced cephalic or saphenous vein catheter over 20 min to six healthy research dogs following protocol as described previously.[38] Briefly, physical examinations for signs of potential drug toxicity were performed before, during, and daily for 3 days after fluorocoxib D administration. Physical assessment included auscultation of heart and lungs, abdominal palpation, body temperature, appetite, attitude, activity levels monitoring, and other health-related events. Hypersensitivity was evaluated by direct observation of each dog during treatment for clinical signs of an allergic reaction (facial swelling, flushing, urticaria, dyspnea, scratching, and changes of heart rates). […] Laboratory evaluations of blood and urine were carried out before and 3 days after fluorocoxib D administration to monitor signs of toxicity. Blood (up to 3 ml) was collected into ethylenediaminetetraacetic acid (EDTA) and heparin-treated tubes, and urine (up to 5 ml) was collected by cystocentesis or from the floor of the runs. The laboratory evaluation consisted of a complete blood count (CBC), serum chemistry profile, and complete urinalysis. The CBC evaluated total white blood cells (WBC) and hematocrit (HCT), in addition to absolute numbers of neutrophils, lymphocytes, monocytes, eosinophils, and platelets. The plasma chemistry profile evaluated blood urea nitrogen (BUN), creatinine, proteins (albumin, globulins, and total proteins), alanine aminotransferase (ALT), total bilirubin, glucose, and electrolytes. The complete urinalysis evaluated urine proteins, glucose, and ketones; a sediment examination and urine-specific gravity were validated as well for any possible signs of renal toxicity of fluorocoxib D. All laboratory tests were carried out at the Veterinary Medical Center of the University of Tennessee in Knoxville.

[3] = Pharmacokinetics of fluorocoxib D in research dogs, plasma HPLC; type: in vivo, dog
Method: as §1
To determine the pharmacokinetic parameters of fluorocoxib D ( 1 mg/kg , i.v.) in dogs, blood (2 to 3 ml) was collected from the jugular vein into EDTA-treated tubes at 0, 0.5, 1, 2, 4, 8, and 24 h after compound administration. The blood was centrifuged within 20 min of sample collection. Plasma was removed and stored at −80°C until further HPLC analysis.
Levels of fluorocoxib D were determined in collected canine plasma samples using HPLC at Vanderbilt University (JU). The frozen samples were thawed and extracted with acetonitrile. The organic layer was collected, dried, and reconstituted in methanol and water. The unknown samples were quantitated against a 5-point standard curve, which was prepared by mixing known quantities of fluorocoxib D with commercial canine plasma (Sigma-Aldrich) and subjecting the resulting samples to liquid–liquid extraction and HPLC. Samples were analyzed using a reverse-phase column (C18, 5×0.2 cm , Phenomenex) with gradient elution. The mobile phase component A was water, and B was acetonitrile, each containing 0.1% acetic acid. The gradient was 50% B to 90% B over 5 min, followed by a brief hold and return to initial conditions. The flow rate was 0.3 ml/min .
The pharmacokinetic parameters for fluorocoxib D were estimated from the plasma concentration-time data by a nonlinear mixed effects approach, as implemented with Monolix 4.1.2 (Lixoft S.A.S., Orsay, France). This approach allowed analyzing data from all animals at the same time and was ideal for relatively sparse datasets like the one used in this study. The plasma clearance (Cl), representing the overall ability of the body to eliminate fluorocoxib D, was determined by scaling its elimination rate (amount per time) by the corresponding plasma concentration level. The volume of distribution (Vd) was defined as the ratio of the total amount of fluorocoxib D in the body to the blood plasma concentration. The Cl and Vd were estimated directly from the study population data. The peak concentration in plasma ( Cmax ) and the following pharmacokinetic parameters were obtained by averaging the corresponding post-hoc Bayesian estimates. The individual partial areas under the curve between times 0 and 8 h ( AUC0−8 ) and the AUC0−∞ with extrapolation to infinity were calculated using the log-linear trapezoidal rule, as implemented with WinNonlin 5.1 (Pharsight, Mountain View, California). The mean residence time (MRT) value was determined as the ratio of the area under the first moment curve over AUC0−∞ . The elimination rate constant was determined as the slope obtained by linear regression of the terminal log-linear portion of the concentration versus time curve, and the elimination half-life ( t1/2 ) was then calculated. The plasma concentration graphs were generated using calculated averaged plasma concentrations of fluorocoxib D from six dogs after 1 mg/kg i.v. of fluorocoxib D administration performed over 20 min.

[4] = female, beagle, dog, plasma, iv, 1 mg/kg i.v., six research dogs, mean ± S.D.

**Q.** For `COc1ccc2c(c1)c(CC(=O)NCCCCNC(=O)c1ccc(C3=c4cc5c6c(c4Oc4c3cc3c7c4CCCN7CCC3)CCC[N+]=6CCC5)cc1)c(C)n2C(=O)c1ccc(Cl)cc1` [Fluorocoxib D, N -[(rhodamin-X-yl)but-4-yl]-2-[1-(4-chlorobenzoyl)-5-methoxy-2-methyl-1H-indol-3-yl]acetamide], which “Water solubility compared to fluorocoxib A” value [1] is on record?
**A.** Its value is “improved water solubility”.

**Q.** What about the “PLT EST (platelet estimate), After” value ([2]; 3 days after single dose 1 mg/kg i.v., dog #3, ADQ = adequate) of the same molecule?
**A.** The value was “ADQ”.

**Q.** What about the “PLT CNT (platelets counts), After” value ([2]; 3 days after single dose 1 mg/kg i.v., dog #3, reference range 147 to 423) of the same molecule?
**A.** The value was 241000 µL⁻¹.

**Q.** And the “Abs BAN (absolute band neutrophils), After” value ([2]; 3 days after single dose 1 mg/kg i.v., dog #6, reference range 0 to 0.3)?
**A.** Its value is 0 µL⁻¹.

**Q.** And the “Abs EOS (absolute eosinophils), After” value ([2]; 3 days after single dose 1 mg/kg i.v., individual dogs #1-#6, reference range 0 to 0.85, 1 mg/kg)?
**A.** The value was 240 µL⁻¹ and 360 µL⁻¹ and 140 µL⁻¹ and 200 µL⁻¹ and 180 µL⁻¹ and 170 µL⁻¹.

**Q.** What about the “Abs MON (absolute monocytes), After” value ([2]; 3 days after single dose 1 mg/kg i.v., individual dogs #1-#6, reference range 0.165 to 0.85, 1 mg/kg) of the same molecule?
**A.** Its value is 230 µL⁻¹ and 300 µL⁻¹ and 240 µL⁻¹ and 490 µL⁻¹ and 380 µL⁻¹ and 620 µL⁻¹.

**Q.** What about the “Abs LYM (absolute lymphocytes), After” value ([2]; 3 days after single dose 1 mg/kg i.v., individual dogs #1-#6, reference range 1.1 to 4.6, 1 mg/kg) of the same molecule?
**A.** Its value is 1610 µL⁻¹ and 2050 µL⁻¹ and 2220 µL⁻¹ and 1880 µL⁻¹ and 2300 µL⁻¹.

**Q.** What about the “Abs SEG (absolute segmented neutrophils), After” value ([2]; 3 days after single dose 1 mg/kg i.v., individual dogs #1-#6, reference range 2.65 to 9.8, 1 mg/kg) of the same molecule?
**A.** The value was 3.22 ×10^3/μl and 2.98 ×10^3/μl and 4 ×10^3/μl and 4.72 ×10^3/μl and 5.07 ×10^3/μl and 2.4 L ×10^3/μl.

**Q.** And the “WBC (white blood cells), After” value ([2]; 3 days after single dose 1 mg/kg i.v., individual dogs #1-#6, reference range 5.1 to 14, 1 mg/kg)?
**A.** The value was 5.3 ×10^3/μl (2×) and 5.7 ×10^3/μl and 6.6 ×10^3/μl and 7.3 ×10^3/μl and 7.8 ×10^3/μl.

**Q.** And the “HCT (hematocrit), After” value ([2]; 3 days after single dose 1 mg/kg i.v., individual dogs #1-#6, reference range 41 to 60, 1 mg/kg)?
**A.** Its value is 45.2% and 47.2% (2×) and 45.6% and 47% and 48.1%.

**Q.** What about the “Neutrophil finding 3 days after administration” value ([2]; dog #6, remained afebrile and clinically normal, cause uncertain) of the same molecule?
**A.** The value was “mild neutropenia”.

**Q.** What about the “Peak concentration in plasma” value ([3]; 1 mg/kg i.v. over 20 min, dogs, HPLC) of the same molecule?
**A.** Its value is 114.8 ± 50.5 ng/mL.

**Q.** What about the “Detection in plasma after 4 h following administration” value ([3]; 1 mg/kg i.v., dogs, HPLC) of the same molecule?
**A.** The value was “No fluorocoxib D was detected; also recorded: No detectable levels”.

**Q.** What about the Tmax ([3]; female, beagle, dog, plasma, iv, 1 mg/kg i.v. over 20 min, dogs, read-out: Time of peak plasma concentration after administration) of the same molecule?
**A.** The Tmax was 30 min.

**Q.** What about the Cmax ([3]; female, beagle, dog, plasma, iv, 1 mg/kg i.v. over 20 min, six research dogs, mean ± S.D.) of the same molecule?
**A.** The Cmax was 0.11 ± 0.05 µg/mL.

**Q.** And the AUC(0-inf) [3, 4]?
**A.** The AUC(0-inf) was 0.15 ± 0.05 µg·h/mL.

**Q.** What about the MRT [3, 4] of the same molecule?
**A.** Its MRT is 87.6 ± 25.2 min.

**Q.** And the AUC(0-t) ([3]; female, beagle, dog, plasma, iv, 1 mg/kg i.v., six research dogs, mean ± S.D., read-out: AUC0-8)?
**A.** Its AUC(0-t) is 0.11 ± 0.04 µg·h/mL.

**Q.** What about the clearance ([3]; female, beagle, dog, plasma, iv, 1 mg/kg i.v., six research dogs, mean ± S.D., read-out: Cl (clearance) (converted)) of the same molecule?
**A.** Its clearance is 7.4 L/h/kg.

**Q.** And the Vd ([3]; female, beagle, dog, plasma, iv, 1 mg/kg i.v., six research dogs, mean ± S.D., read-out: Vdarea (volume of distribution))?
**A.** Its Vd is 9.97 ± 4.76 L/kg.

**Q.** What about the half-life ([3]; female, beagle, dog, plasma, iv, 1 mg/kg i.v., six research dogs, mean ± S.D., read-out: t1/2 (terminal/elimination half-life) (converted)) of the same molecule?
**A.** Its half-life is 54.6 ± 17.4 min.
